According to paper PMC10517138, “Varied effects of tobacco smoke and e-cigarette vapor suggest that nicotine does not affect endothelium-dependent relaxation and nitric oxide signaling” (Scientific Reports, 2023):

Biological target: T1, purified sGC (bovine lung soluble guanylyl cyclase) (Bos taurus, UniProt P16068)
T1 construct: gene GUCY1B1; native enzyme purified from bovine lung; with Guanylate cyclase soluble subunit alpha-1
T1 sequence (P16068 1-619): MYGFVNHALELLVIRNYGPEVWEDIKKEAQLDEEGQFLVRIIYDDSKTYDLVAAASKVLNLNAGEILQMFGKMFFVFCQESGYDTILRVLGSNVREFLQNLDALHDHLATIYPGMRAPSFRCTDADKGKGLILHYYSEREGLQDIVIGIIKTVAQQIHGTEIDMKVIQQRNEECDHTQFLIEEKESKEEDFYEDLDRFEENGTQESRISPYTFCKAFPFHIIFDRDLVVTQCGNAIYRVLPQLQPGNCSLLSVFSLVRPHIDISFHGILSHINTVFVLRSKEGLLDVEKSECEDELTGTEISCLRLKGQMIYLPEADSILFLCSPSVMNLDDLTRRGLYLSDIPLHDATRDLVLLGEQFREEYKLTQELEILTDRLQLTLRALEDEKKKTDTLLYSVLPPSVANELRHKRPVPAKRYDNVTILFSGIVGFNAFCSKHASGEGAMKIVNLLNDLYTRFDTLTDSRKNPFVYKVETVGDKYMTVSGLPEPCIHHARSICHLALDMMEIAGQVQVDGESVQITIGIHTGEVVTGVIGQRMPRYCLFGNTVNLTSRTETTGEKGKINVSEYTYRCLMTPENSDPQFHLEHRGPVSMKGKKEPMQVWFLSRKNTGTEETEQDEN
T1 sequence (P19687 1-691 partner): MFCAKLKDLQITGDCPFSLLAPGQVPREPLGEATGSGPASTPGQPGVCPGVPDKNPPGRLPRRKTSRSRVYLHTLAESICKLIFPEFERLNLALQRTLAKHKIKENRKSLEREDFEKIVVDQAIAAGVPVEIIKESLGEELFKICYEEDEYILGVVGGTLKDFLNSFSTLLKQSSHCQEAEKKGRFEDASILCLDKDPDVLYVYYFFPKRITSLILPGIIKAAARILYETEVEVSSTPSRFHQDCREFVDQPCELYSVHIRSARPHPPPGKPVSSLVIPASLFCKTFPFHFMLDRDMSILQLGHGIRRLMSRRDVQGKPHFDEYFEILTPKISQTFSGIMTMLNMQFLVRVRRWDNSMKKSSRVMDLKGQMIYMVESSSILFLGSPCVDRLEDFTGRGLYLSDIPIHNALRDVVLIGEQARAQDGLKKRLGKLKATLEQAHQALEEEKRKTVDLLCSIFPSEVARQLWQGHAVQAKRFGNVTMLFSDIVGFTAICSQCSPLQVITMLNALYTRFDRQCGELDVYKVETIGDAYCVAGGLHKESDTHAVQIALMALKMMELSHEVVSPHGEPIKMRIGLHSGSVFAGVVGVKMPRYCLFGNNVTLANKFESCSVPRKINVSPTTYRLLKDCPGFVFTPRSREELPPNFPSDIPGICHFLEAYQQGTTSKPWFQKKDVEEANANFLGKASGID
Assay: […]cGMP formation from [alpha-32P]GTP by purified sGC
Type: biochemical
Settings: 0.5 mM GTP, 3 mM MgCl2, 1 mM cGMP, 0.5% Tween 20 (heme-depleted enzyme), TEA/HCl pH 7.4, 37 °C, no extract; NO-independent heme-site activator

SMILES: O=C(O)CCCCN(CCc1ccccc1OCc1ccc(CCc2ccccc2)cc1)Cc1ccc(C(=O)O)cc1 [cinaciguat]
- cGMP formation (activation): cGMP formation by Tween 20-treated sGC in the presence of the NO-independent heme-site activator cinaciguat
